As usually defined, the IC50 is the point on the concentration scale where inhibition reaches its midpoint.

Experimental findings from patent publication US9758559B2, “Short peptides derived from VDAC1, compositions and methods of use thereof” (B.G. NEGEV TECHNOLOGIES AND APPLICATIONS LTD., AT …, priority 2013, dated 2017) are described below.

Where no end group is shown, it is not given here.

Assay [1] relates to MEC-1 cells. It is filed as cell-based. The conditions noted are these: for cell-death induction activity, in words: compared with N-Ter-Antp. The procedure:
(§1) MEC-1, MO1043 and T-Rex-293 cells were grown in DMEM supplemented with 10% FCS, 2 mM L-glutamine, 1000 U/ml penicillin and 1 mg/ml streptomycin, U-87, C6 and PC3 were maintained in RPMI 1640 supplemented with 10-20% FCS, 2 mM L-glutamine, 1000 U/ml penicillin and 1 mg/ml streptomycin. All cells were maintained in a humidified atmosphere with 5% CO2 at 37° C.
(§2) PBMCs (4×10^5 or 8×10^5 cells/sample) were incubated in 200 μl serum-free medium with the examined peptide for 90 min at room temperature and centrifuged (500×g, 5 min) Cell death was analyzed by PI staining and flow cytometer (Beckton-Dickinson) and BD Cell Quest Pro software. Apoptotic cell death was also analyzed by PI and annexin V-FITC staining (Zaid H et al. 2005. 12:751-760), and by acridine orange and ethidium bromide staining and confocal microscopy (Olympus 1×81).
To optimize the VDAC1 N-terminal derived peptides with respect to stability, length and specific targeting to cancer cells, several versions of these peptides were designed and tested for their efficacy in inducing the death of CLL-derived lymphocytes and MEC-1 cells (Table 3). Cells were incubated for 90 min with increasing concentrations of the indicated peptide and death was analyzed by PI stating and FACS as described hereinabove. As is clearly shown in FIG. 1 (and Table 3), deleting 6 residues from the C-terminus of the peptide, including the GXXXG motif, yielded a non-active peptide (peptide Δ(21-26) N-Ter-Antp, SEQ ID NO:22).

In assay [2] the test system is MO1043 cells. The assay is described as follows: Cell death of MO1043 cells, PI staining and FACS. It is filed as cell-based, human. Particulars: compared with N-Ter-Antp. The procedure: as §1, §2
To optimize the VDAC1 N-terminal derived peptides with respect to stability, length and specific targeting to cancer cells, several versions of these peptides were designed and tested for their efficacy in inducing the death of CLL-derived lymphocytes and MEC-1 cells (Table 3). Cells were incubated for 90 min with increasing concentrations of the indicated peptide and death was analyzed by PI stating and FACS as described hereinabove. […]

In assay [3] the test system is CLL-derived lymphocytes. The assay is described as follows: Cell death of CLL-derived lymphocytes (PBMCs of CLL patients), PI staining and FACS. The format is cell-based, human. Particulars: 90 min incubation, PI staining, FACS, read-out: IC50, induction of cell death, CLL. As to the method: PBMCs were isolated from venous blood of the CLL patients by Ficoll-Paque PLUS (GE Healthcare, Israel) density gradient centrifugation, as follows. Venous blood (10-20 ml) was drawn from CLL patients with satisfying diagnostic criteria for CLL or from normal adult donors. Blood was collected into heparin tubes and was diluted 1:1 with balance solution composed of two stock solutions, A (1% D-glucose, 50 mM CaCl2, 0.98 mM MgCl2, 5.4 mM KCl and 0.145 M Tris-HCl, pH 7.6) and B (0.14 M NaCl) in a 1:9 ratio. The resulting mix was carefully layered on Ficoll-Paque Plus (10 ml of diluted blood:15 ml Ficoll) in 50 ml conical tubes. The tubes were centrifuged at 400×g (with minimal acceleration and deceleration) and 18-20° C. for 40 min. […] Cells were counted by a Countess Automated Cell Counter (Invitrogen).
PBMCs (4×10^5 or 8×10^5 cells/sample) were incubated in 200 μl serum-free medium with the examined peptide for 90 min at room temperature and centrifuged (500×g, 5 min) Cell death was analyzed by PI staining and flow cytometer (Beckton-Dickinson) and BD Cell Quest Pro software. Apoptotic cell death was also analyzed by PI and annexin V-FITC staining (Zaid H et al. 2005. 12:751-760), and by acridine orange and ethidium bromide staining and confocal microscopy (Olympus 1×81). […]

In the case of “RDVFTKGYGFGLRQIKIWFQNRRMKWKK [Δ(1-14) N-Ter-Antp, RDVFTKGYGFGL RQIKIWFQNRRMKWKK]”, the “cell-death induction activity, in words” value in assay [1] was “more active”.
On to “GKSARDVFTKGYGFGLRQIKIWFQNRRMKWKK [Δ(1-10) N-Ter-Antp, GKSARDVFTKGYGFGL RQIKIWFQNRRMKWKK]”, for which, in assay [1], the “cell-death induction activity, in words” value is recorded as “did not significantly modified the cell-death induction activity”.
The same measure, in the same setting: the value for “PTYADLGKSARDVFTKGYGFGLRQIKIWFQNRRMKWKK [Δ(1-4) N-Ter-Antp]” was “did not significantly modified the cell-death induction activity”.
For the sequence “TKGYGFGL RQIKIWFQNRRMKWKK (TKGYGFGLRQIKIWFQNRRMKWKK) [Δ(1-18) N-Ter-Antp]”, the “cell-death induction activity, in words” value in assay [2] is “more active”.
Regarding “MAVPPTYADLGKSARDVFTKRQIKIWFQNRRMKWKK [Δ(21-26) N-Ter-Antp]”, in assay [1], the “cell-death induction activity, in words” value is on record as “non-active”.
In the case of “MAVPPTYADLGKSARDVFTKGYGFGLRQIKIWFQNRRMKWKK [N-Ter-Antp, reference compound]”, the IC50 in assay [3] turned out to be 3.2 ± 0.5 µM; in assay [1] (90 min incubation, serum-free medium, PI staining, FACS, read-out: IC50, induction of cell death, MEC-1) it was 4.2 ± 0.2 µM.
